Assay results published in PubChem BioAssay AID282 (DTP/NCI, 2004).
“And” between values parts separate entries of the source, which are not always exact repeats. Equal entries are not always repeated. Inconclusive results and toxic doses are left out.

System: BDF1 mice, L1210 terephthalanilide-resistant leukemia ip, survival T/C
Assay: NCI In Vivo Anticancer Drug Screen. Data for tumor model L1210 Leukemia resistant to A Terephthalanilide; NSC 38280 (intraperitoneal) in B6D2F1 (BDF1) mice
Details: endpoint: mean survival time, higher = longer survival
Procedure: The antitumor activity of compounds was measured in mice bearing transplantable tumors. Survival or tumor size were measured and the results are expressed as the measurement made in the treated group (T) divided by the measurement made in the vehicle treated control group (C). The tumor model used in this assay is L1210 Leukemia resistant to A Terephthalanilide; NSC 38280 (intraperitoneal) in B6D2F1 (BDF1) mice

[1] = dose: 2.0 mg/kg/injection, schedule: Q01DX010 (ip), vehicle: saline
[2] = dose: 4.0 mg/kg/injection, schedule: Q01DX010 (ip), vehicle: saline
[3] = dose: 16.0 mg/kg/injection, schedule: Q01DX010 (ip), vehicle: saline
[4] = dose: 10.0 mg/kg/injection, schedule: Q01DX Z (ip), vehicle: carboxymethylcellulose (CMC)
[5] = dose: 12.5 mg/kg/injection, schedule: Q01DX010 (ip), vehicle: saline
[6] = dose: 20.0 mg/kg/injection, schedule: Q01DX Z (ip), vehicle: carboxymethylcellulose (CMC)
[7] = dose: 25.0 mg/kg/injection, schedule: Q01DX010 (ip), vehicle: saline
[8] = dose: 50.0 mg/kg/injection, schedule: Q01DX010 (ip), vehicle: saline
[9] = dose: 150.0 mg/kg/injection, schedule: Q01DX Z (ip), vehicle: carboxymethylcellulose (CMC)
[10] = dose: 8.0 mg/kg/injection, schedule: Q01DX010 (ip), vehicle: saline
[11] = dose: 32.0 mg/kg/injection, schedule: Q01DX010 (ip), vehicle: saline
[12] = dose: 37.5 mg/kg/injection, schedule: Q01DX Z (ip), vehicle: carboxymethylcellulose (CMC)
[13] = dose: 50.0 mg/kg/injection, schedule: Q01DX Z (ip), vehicle: carboxymethylcellulose (CMC)
[14] = dose: 2.5 mg/kg/injection, schedule: Q01DX Z (ip), vehicle: carboxymethylcellulose (CMC)
[15] = dose: 5.0 mg/kg/injection, schedule: Q01DX Z (ip), vehicle: carboxymethylcellulose (CMC)
[16] = dose: 25.0 mg/kg/injection, schedule: Q01DX Z (ip), vehicle: carboxymethylcellulose (CMC)
[17] = dose: 125.0 mg/kg/injection, schedule: Q01DX Z (ip), vehicle: carboxymethylcellulose (CMC)
[18] = dose: 250.0 mg/kg/injection, schedule: Q01DX Z (ip), vehicle: carboxymethylcellulose (CMC)

## O=C(Nc1ccc(NC2=NCCN2)cc1)c1ccc(C(=O)Nc2ccc(NC3=NCCN3)cc2)cc1
[1]
  T/C: 112 % of control and 113 % of control
[2]
  T/C: 115 % of control
[3]
  T/C: 122 % of control and 115 % of control

## CSCS(=O)C[C@H](CO)NC(=O)/C=C/c1c(C)[nH]c(=O)[nH]c1=O (some centres not stated)
dose: 62.5 micrograms/kg/injection, schedule: Q01DX010 (ip), vehicle: saline
  T/C: 100 % of control
dose: 125.0 micrograms/kg/injection, schedule: Q01DX010 (ip), vehicle: saline
  T/C: 100 % of control
dose: 250.0 micrograms/kg/injection, schedule: Q01DX010 (ip), vehicle: saline
  T/C: 102 % of control
dose: 500.0 micrograms/kg/injection, schedule: Q01DX010 (ip), vehicle: saline
  T/C: 102 % of control

## CC(=O)Nc1ccc2nc3ccc(NC(C)=O)cc3[n+](-c3ccccc3)c2c1
[4]
  T/C: 108 % of control
[5]
  T/C: 107 % of control
[6]
  T/C: 117 % of control
[7]
  T/C: 109 % of control and 110 % of control
[8]
  T/C: 121 % of control and 104 % of control
dose: 100.0 mg/kg/injection, schedule: Q01DX010 (ip), vehicle: saline
  T/C: 106 % of control and 112 % of control
[9]
  T/C: 121 % of control
dose: 300.0 mg/kg/injection, schedule: Q01DX Z (ip), vehicle: carboxymethylcellulose (CMC)
  T/C: 120 % of control
dose: 400.0 mg/kg/injection, schedule: Q01DX Z (ip), vehicle: carboxymethylcellulose (CMC)
  T/C: 91 % of control

## O=C(Nc1ccc(C2=NCCN2)cc1)c1cccc(C(=O)Nc2ccc(C3=NCCN3)cc2)c1
[10]
  T/C: 94 % of control and 101 % of control
[3]
  T/C: 105 % of control and 110 % of control
[11]
  T/C: 106 % of control and 110 % of control
dose: 64.0 mg/kg/injection, schedule: Q01DX010 (ip), vehicle: saline
  T/C: 120 % of control

## CC(=O)O[C@]1(C(C)=O)CC[C@H]2[C@@H]3C[C@H](C)C4=CC(=O)C=C[C@]4(C)[C@@]3(F)[C@@H](O)C[C@@]21C
dose: 12.5 mg/kg/injection, schedule: Q01DX010 (sc), vehicle: steriod suspending solution
  T/C: 102 % of control
dose: 25.0 mg/kg/injection, schedule: Q01DX010 (sc), vehicle: steriod suspending solution
  T/C: 98 % of control
dose: 50.0 mg/kg/injection, schedule: Q01DX010 (sc), vehicle: steriod suspending solution
  T/C: 98 % of control
dose: 50.0 mg/kg/injection, schedule: Q01DX Z (sc), vehicle: steriod suspending solution
  T/C: 102 % of control
dose: 75.0 mg/kg/injection, schedule: Q01DX Z (sc), vehicle: steriod suspending solution
  T/C: 104 % of control
dose: 100.0 mg/kg/injection, schedule: Q01DX010 (sc), vehicle: steriod suspending solution
  T/C: 91 % of control
dose: 100.0 mg/kg/injection, schedule: Q01DX Z (sc), vehicle: steriod suspending solution
  T/C: 102 % of control
dose: 150.0 mg/kg/injection, schedule: Q01DX Z (sc), vehicle: steriod suspending solution
  T/C: 102 % of control

## Cn1c(N)nc2nc[nH]c2c1=S
dose: 10.0 mg/kg/injection, schedule: Q01DX010 (ip), vehicle: saline
  T/C: 103 % of control
dose: 16.0 mg/kg/injection, schedule: Q01DX Z (ip), vehicle: carboxymethylcellulose (CMC)
  T/C: 111 % of control
dose: 20.0 mg/kg/injection, schedule: Q01DX010 (ip), vehicle: saline
  T/C: 93 % of control
dose: 31.0 mg/kg/injection, schedule: Q01DX Z (ip), vehicle: carboxymethylcellulose (CMC)
  T/C: 120 % of control
[12]
  T/C: 150 % of control
dose: 40.0 mg/kg/injection, schedule: Q01DX010 (ip), vehicle: saline
  T/C: 99 % of control
[13]
  T/C: 154 % of control
dose: 75.0 mg/kg/injection, schedule: Q01DX Z (ip), vehicle: carboxymethylcellulose (CMC)
  T/C: 119 % of control
dose: 80.0 mg/kg/injection, schedule: Q01DX010 (ip), vehicle: saline
  T/C: 100 % of control
[9]
  T/C: 150 % of control

## Nc1nc(F)nc2c1ncn2C1OC(CO)C(O)C1O (configuration not stated)
dose: 0.75 mg/kg/injection, schedule: Q01DX Z (ip), vehicle: saline
  T/C: 111 % of control
dose: 1.5 mg/kg/injection, schedule: Q01DX Z (ip), vehicle: saline
  T/C: 108 % of control
dose: 3.0 mg/kg/injection, schedule: Q01DX Z (ip), vehicle: saline
  T/C: 114 % of control
dose: 6.0 mg/kg/injection, schedule: Q01DX Z (ip), vehicle: saline
  T/C: 101 % of control

## O=C(Nc1ccc(NC(=O)Nc2cccc(C3=NCCN3)c2)cc1)Nc1cccc(C2=NCCN2)c1
dose: 60.0 mg/kg/injection, schedule: Q01DX Z (ip), vehicle: carboxymethylcellulose (CMC)
  T/C: 96 % of control
dose: 120.0 mg/kg/injection, schedule: Q01DX Z (ip), vehicle: carboxymethylcellulose (CMC)
  T/C: 106 % of control
dose: 240.0 mg/kg/injection, schedule: Q01DX Z (ip), vehicle: carboxymethylcellulose (CMC)
  T/C: 106 % of control

## CC(CCC(C)OS(C)(=O)=O)OS(C)(=O)=O (configuration not stated)
[1]
  T/C: 102 % of control
[14]
  T/C: 94 % of control
[2]
  T/C: 95 % of control and 100 % of control
[15]
  T/C: 97 % of control
dose: 7.5 mg/kg/injection, schedule: Q01DX Z (ip), vehicle: carboxymethylcellulose (CMC)
  T/C: 103 % of control
[10]
  T/C: 100 % of control
[4]
  T/C: 111 % of control
dose: 12.5 mg/kg/injection, schedule: Q01DX Z (ip), vehicle: carboxymethylcellulose (CMC)
  T/C: 109 % of control
[3]
  T/C: 100 % of control and 112 % of control
[16]
  T/C: 88 % of control
[11]
  T/C: 110 % of control

## O=C1C(NC(=O)C2CCCCC2)=C(N2CC2)C(=O)C(NC(=O)C2CCCCC2)=C1N1CC1
dose: 6.25 mg/kg/injection, schedule: Q01DX010 (ip), vehicle: saline
  T/C: 98 % of control
[5]
  T/C: 98 % of control
dose: 18.0 mg/kg/injection, schedule: Q01DX Z (ip), vehicle: carboxymethylcellulose (CMC)
  T/C: 108 % of control
[7]
  T/C: 93 % of control and 98 % of control
[16]
  T/C: 97 % of control
[12]
  T/C: 91 % of control
[8]
  T/C: 90 % of control and 102 % of control
[13]
  T/C: 100 % of control
[17]
  T/C: 121 % of control
[18]
  T/C: 122 % of control

## S=P(N1CC1)(N1CC1)N1CC1
dose: 0.75 mg/kg/injection, schedule: Q01DX010 (ip), vehicle: saline
  T/C: 97 % of control and 115 % of control
dose: 1.5 mg/kg/injection, schedule: Q01DX010 (ip), vehicle: saline
  T/C: 124 % of control and 105 % of control
dose: 3.0 mg/kg/injection, schedule: Q01DX010 (ip), vehicle: saline
  T/C: 118 % of control
dose: 6.0 mg/kg/injection, schedule: Q01DX010 (ip), vehicle: saline
  T/C: 94 % of control and 100 % of control

## Nc1nc(=S)c2ncn(C3OC(CO)C(O)C3O)c2[nH]1 (configuration not stated)
dose: 0.13 mg/kg/injection, schedule: Q01DX Z (ip), vehicle: carboxymethylcellulose (CMC)
  T/C: 117 % of control
dose: 0.3 mg/kg/injection, schedule: Q01DX Z (ip), vehicle: carboxymethylcellulose (CMC)
  T/C: 120 % of control
dose: 1.25 mg/kg/injection, schedule: Q01DX Z (ip), vehicle: carboxymethylcellulose (CMC)
  T/C: 182 % of control
[1]
  T/C: 157 % of control and 179 % of control
[14]
  T/C: 151 % of control
[2]
  T/C: 86 % of control and 110 % of control
[15]
  T/C: 155 % of control
[10]
  T/C: 98 % of control
dose: 15.0 mg/kg/injection, schedule: Q01DX Z (ip), vehicle: carboxymethylcellulose (CMC)
  T/C: 111 % of control
[6]
  T/C: 102 % of control

## Oc1cc(CN(CCCl)CCCl)c(O)cc1CN(CCCl)CCCl
dose: 0.63 mg/kg/injection, schedule: Q01DX010 (ip), vehicle: saline
  T/C: 116 % of control and 120 % of control
dose: 1.0 mg/kg/injection, schedule: Q01DX Z (ip), vehicle: carboxymethylcellulose (CMC)
  T/C: 121 % of control
dose: 5.0 mg/kg/injection, schedule: Q01DX010 (ip), vehicle: saline
  T/C: 108 % of control and 113 % of control
dose: 6.0 mg/kg/injection, schedule: Q01DX Z (ip), vehicle: carboxymethylcellulose (CMC)
  T/C: 150 % of control

## O=c1cn[nH]c(=O)[nH]1
dose: 62.0 mg/kg/injection, schedule: Q01DX Z (ip), vehicle: carboxymethylcellulose (CMC)
  T/C: 101 % of control
dose: 62.5 mg/kg/injection, schedule: Q01DX010 (ip), vehicle: saline
  T/C: 97 % of control and 101 % of control
dose: 125.0 mg/kg/injection, schedule: Q01DX010 (ip), vehicle: saline
  T/C: 97 % of control and 105 % of control
[17]
  T/C: 101 % of control
dose: 250.0 mg/kg/injection, schedule: Q01DX010 (ip), vehicle: saline
  T/C: 106 % of control and 113 % of control
[18]
  T/C: 106 % of control
dose: 500.0 mg/kg/injection, schedule: Q01DX010 (ip), vehicle: saline
  T/C: 123 % of control and 115 % of control
dose: 500.0 mg/kg/injection, schedule: Q01DX Z (ip), vehicle: carboxymethylcellulose (CMC)
  T/C: 113 % of control
